Data: patent US11833139B2 (priority 2019, dated 2023)
Read-outs that look alike come from different tables or passages of the source.

Key:
[1] = system: A. baumannii HUMC1; assay: MIC by broth microdilution (CLSI), carbapenem-resistant clinical isolate HUMC1; assay type: cell-based, Acinetobacter baumannii; details: Acinetobacter baumannii, read-out: MIC
Description: (§1) Two A. baumannii isolates were used in this example: HUMC1 (BV374) (Spellberg/Luna Laboratory, University of Southern California, Los Angeles, Calif.) and UNT091-1 (BV378) (UNT Health Science Center, Fort Worth, Tex.). The HUMC1 isolate is a hyper-virulent drug-resistant clinical strain isolated from a blood-stream infection. […] The isolates were stored at −80° C. as 20% (v/v) glycerol cultures.
(§2) MICs were determined by the broth microdilution method following the guidelines of the Clinical Laboratory Standards Institute (CLSI) using RPMI supplemented with […] cationic-adjusted Muller Hinton broth (CA-MHB) as assay medium. To prepare the bacterial inocula, 3-5 colonies of bacterial strains from over-night growth on ChromAgar orientation plates (CHROMagar Cat. No. RT412) were suspended in 5 mL saline. The turbidity of the bacterial suspension was adjusted to 0.5 McFarland units (equal to an optical density at 610 nm (OD610) to 0.08-0.1). This suspension was diluted 200-fold in RPMI supplemented with 10% (v/v) FCS to reach a final concentration of […] colony forming units (CFU)/mL and was used to inoculate the microtiter plates.
(§3) Serial 2-fold dilutions of the antibiotics were prepared in a separate 96-well plate polypropylene U-bottom plate (Ratiolab Cat. No. 6018111) in RPMI supplemented with 10% (v/v) FCS at 10-fold of the final test concentrations and 10 μl of the dilutions were transferred to new 96-well polystyrene U-bottom microtiter plates with a parafilm plate cover.
(§4) The plates were then inoculated with 90 μL per well of the prepared bacterial suspensions in using a multichannel pipette (Eppendorf), with the first column containing 4 wells each for growth control (no antibiotic). […] The MIC was recorded as the lowest concentration of the compound that inhibited bacterial growth by visual inspection. MICs were determined at least in duplicates and in the case of variations, the higher values are provided.

[2] = system: A. baumannii UNT091; assay: MIC by broth microdilution (CLSI), carbapenem-resistant clinical isolate UNT091; assay type: cell-based, Acinetobacter baumannii; details: Acinetobacter baumannii, read-out: MIC
Description: as §1, §2, §3, §4

- MIC ([1]; HUMC1, HUMC1, CA-MHB (Table 1)): > 16 µg/mL
- MIC ([1]; HUMC1, HUMC1, RPMI plus 10% FCS (Table 1)): > 16 µg/mL
- MIC ([2]; UNT091, UNT091, CA-MHB (Table 1)): > 16 µg/mL
- MIC ([2]; UNT091, UNT091, RPMI plus 10% FCS (Table 1)): > 16 µg/mL
SMILES: C[C@@H](O)[C@H]1C(=O)N2C(C(=O)O)=C(S[C@@H]3CN[C@H](C(=O)N(C)C)C3)[C@H](C)[C@H]12 [meropenem]
